Experimental data: publication PMC12000251, “Evaluation of the Anti-Inflammatory Effects of Novel Fatty Acid-Binding Protein 4 Inhibitors in Microglia” (Journal of Neuroimmune Pharmacology, 2025)
Read-outs that look alike come from different tables or passages of the source.

Legend:
[1] = molecular target: T1, Recombinantly-expressed human FABP4 (Homo sapiens, UniProt P15090); test: Isothermal titration calorimetry (ITC) binding affinity to FABP4; details: one-site binding model
T1 construct: made in house
T1 sequence (P15090 whole entry): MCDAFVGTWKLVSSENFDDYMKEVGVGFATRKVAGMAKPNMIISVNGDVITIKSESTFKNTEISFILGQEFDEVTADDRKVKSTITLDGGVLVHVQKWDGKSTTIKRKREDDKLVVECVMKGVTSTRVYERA
Protocol: A prior fragment screen identified a series of bi-aryl sulfonamides that bound to FABP4. Analogues of this chemical sulfonamide scaffold were then purchased, which led to the identification of the compounds used in this study (MFP-0011462, MFP-0012314, MFP-0012318, and MFP-0012328). Their predicted LogP and tPSA values were calculated in Vortex v2020.1.117658-s (Dotmatics, Boston, MA). The binding affinity of these four compounds was characterised by isothermal titration calorimetry (ITC). ITC was carried out using an iTC200 microcalorimeter (MicroCal, United Kingdom) with a coin shaped sample cell (201.4 μL) with stirring at 1000 rpm at 25°C. Titrations were performed in an ITC buffer (50 mM sodium phosphate, 50 mM NaCl, pH 7.4 with 2% DMSO). Compounds were diluted from concentrated stocks in ITC buffer and loaded into the titration syringe at a concentration of 1 mM, with a final DMSO concentration of 2% (v/v). Recombinantly-expressed human FABP4 was prepared as described previously (Lee et al. [2015a]) in an identical buffer at a protein concentration of 80 μM and placed in the sample cell. A thermal equilibration step at 25°C was followed by an initial 180 s delay step and subsequently an initial 0.2 μL injection. 16 serial injections of the 1 mM compound solution (2 μL each) were made at intervals of 220 s with continuous stirring of the solution in the sample cell. The iTC200 control software was used to operate and acquire raw data as power (microcalories/sec) vs time (min). The data were processed using the Origin 7.0 software (MicroCal) and the binding affinity (KD) was calculated by fitting the data to a one-site binding model.

[2] = tested on: LPS-activated BV-2 cells; test: Intracellular ROS (DCF-DA) in LPS-activated BV-2 cells; assay type: cell-based, mouse; details: 2 h pre-treatment then co-treatment with 1 µg/mL LPS 24 h, vs LPS-only
Protocol: BV-2 cells were cultured in DMEM/F-12 media supplemented with 10% (v/v) FBS and 1% (v/v) penicillin/streptomycin, and kept at 37 °C in a humidified incubator ([…], 5% CO2) for all studies. Cells with 80% confluency were used for experiments. […] In some experiments (detailed in Results), BV-2 cells were exposed to MFP compounds for 2 h before a 24 h exposure to LPS and MFP compounds, and in some studies, in the presence of FABP4 siRNA using a 24 h treatment that we have previously employed (Low et al. [2021]). In brief, BV-2 cells were washed once 4 h post-seeding with blank DMEM/F-12 media. siRNA complexes (containing FABP4 siRNA, target sequence 5’-[…]-3’ or AllStar Negative Control siRNA, target sequence proprietary) were added dropwise onto the cells. siRNA complexes were prepared by mixing siRNA and HiPerfect transfection reagent together in FBS-free DMEM/F12 media and incubating for 15 min to allow the siRNA complexes to form. The cells were incubated with the siRNA complex for 5 min, after which, DMEM/F12 media containing FBS was added into each well to dilute the siRNA complexes to 5 nM.
Intracellular ROS in BV-2 cells, following treatment with MFP compounds and LPS, was detected using the widely-used membrane permeable probe, DCF-DA. Post treatment, BV-2 cells were rinsed once with warm HBSS prior to being incubated with 40 µM of DCF-DA for 30 min at 37°C, 5% CO2. The wells were then rinsed again with HBSS before being read on a Perkin-Elmer Enspire plate reader (λex: 488 nm, λem: 535 nm) as we have reported previously (Kagawa et al. [2023]).

[3] = tested on: BV-2 cells; test: MTT assay of BV-2 cell viability; assay type: cell-based, mouse; details: 24 h; for fold reduction in cell viability: 75 µM and 100 µM of MFP-0012328, 100 µM of the other MFP compounds, range over the compounds; for BV-2 cell viability relative to vehicle control: 2–50 µM, MTT
Protocol: BV-2 cells were cultured in DMEM/F-12 media supplemented with 10% (v/v) FBS and 1% (v/v) penicillin/streptomycin, and kept at 37 °C in a humidified incubator ([…], 5% CO2) for all studies. Cells with 80% confluency were used for experiments. At 24 h post-seeding, BV-2 cells were treated with either of the MFP compounds (at concentrations detailed below) or vehicle (0.1% (v/v) DMSO) and 1 µg/mL LPS for a period of 24 h. In some experiments (detailed in Results), BV-2 cells were exposed to MFP compounds for 2 h before a 24 h exposure to LPS and MFP compounds, and in some studies, in the presence of FABP4 siRNA using a 24 h treatment that we have previously employed (Low et al. [2021]). In brief, BV-2 cells were washed once 4 h post-seeding with blank DMEM/F-12 media. siRNA complexes (containing FABP4 siRNA, target sequence 5’-[…]-3’ or AllStar Negative Control siRNA, target sequence proprietary) were added dropwise onto the cells. siRNA complexes were prepared by mixing siRNA and HiPerfect transfection reagent together in FBS-free DMEM/F12 media and incubating for 15 min to allow the siRNA complexes to form. The cells were incubated with the siRNA complex for 5 min, after which, DMEM/F12 media containing FBS was added into each well to dilute the siRNA complexes to 5 nM.
To determine the most appropriate and tolerable concentration of MFP compounds in BV-2 cells, an MTT assay was performed. Following treatment with increasing concentrations of MFP compounds for 24 h, BV-2 cells were rinsed once with PBS prior to being incubated with 0.45 mg/mL MTT reagent for 4 h in a 37 °C, 5% CO2 incubator. After that, the MTT reagent was removed and 150 µL of DMSO was added into all wells for 30 min. The plate was then immediately read on a Perkin-Elmer Enspire fluorescence plate reader (Boston, MA) at 540 nm. Background subtraction was performed before the percentage cell viability was calculated and expressed as a ratio of mean absorbance of MFP-treated cells over mean absorbance of vehicle-treated cells.

[4] = tested on: LPS-activated BV-2 cells; test: Extracellular nitrite (Griess assay) from LPS-activated BV-2 cells; assay type: cell-based, mouse; details: 50 µM, 1 µg/mL LPS 24 h
Protocol: BV-2 cells were cultured in DMEM/F-12 media supplemented with 10% (v/v) FBS and 1% (v/v) penicillin/streptomycin, and kept at 37 °C in a humidified incubator ([…], 5% CO2) for all studies. Cells with 80% confluency were used for experiments. At 24 h post-seeding, BV-2 cells were treated with either of the MFP compounds (at concentrations detailed below) or vehicle (0.1% (v/v) DMSO) and 1 µg/mL LPS for a period of 24 h. In some experiments (detailed in Results), BV-2 cells were exposed to MFP compounds for 2 h before a 24 h exposure to LPS and MFP compounds, and in some studies, in the presence of FABP4 siRNA using a 24 h treatment that we have previously employed (Low et al. [2021]). […]
For measurement of extracellular nitrite concentrations, the Griess assay was performed as per the manufacturer’s protocol (Molecular Probes, Eugene, OR) with minor changes. […] The absorbance of the media samples was measured on a Perkin-Elmer Enspire plate reader at 548 nm, with nitrite concentrations in media samples obtained by back calculating sample absorbance values back to a standard curve prepared through serial dilution of NaNO2 prepared in media.

[5] = tested on: LPS-activated BV-2 cells; parameters: method as in Kagawa et al. [2023]; details: five-fold higher concentration than 10 µM; ref Kagawa et al. [2023]; cited from earlier work
[6] = parameters: method as in PubChem [2021]; details: ref PubChem [2021]; cited from earlier work
[7] = tested on: BV-2 cells; parameters: method as in Kagawa et al. [2023]; details: 50 µM; ref Kagawa et al. [2023]; cited from earlier work
[8] = tested on: LPS-activated BV-2 cells; parameters: method as in Kagawa et al. [2023]; details: 50 µM; ref Kagawa et al. [2023]; cited from earlier work
[9] = molecular target: FABP4; parameters: method as in Floresta et al. [2017]; details: ref Floresta et al. [2017]; cited from earlier work
[10] = 1D 1H NMR aqueous solubility in phosphate buffer; assay type: physicochemical; details: kinetic from dmso stock, phosphate buffer pH 7.4 in D2O, 0.1% d6-DMSO, 25 °C, range 3.125–100 µM, read-out: Soluble in phosphate buffer up to (concentration)
Protocol: 1D ^1H NMR was employed to determine the solubility limits of the four MFP compounds and BMS309403 in phosphate buffer. This method has been commonly used to determine compound solubility in the drug discovery setting (Devine et al. [2014]; Lee et al. [2015b]; Lin et al. [2009]). A 100 mM of stock solution of each compound was first prepared in d6-DMSO. These stock solutions were then added into phosphate buffer (50 mM sodium phosphate, 25 mM NaCl, 100 µM of DSS, pH 7.4 in D2O) to achieve a final d6-DMSO concentration of 0.1% (v/v) which is equivalent to the DMSO concentration present in BV-2 cell culture experiments. All samples were inspected to note whether visible precipitates were formed. ^1H NMR spectra for all of the samples were acquired using Bruker Avance III 600 MHz spectrometer at 25 °C. Experimental data were acquired using a relaxation delay of 5 s with 128 scans, and water suppression using an excitation sculpting pulse scheme. Mestrelab Research 13.0 software was used to integrate the proton resonances of the compounds. A well-resolved peak (i.e. no overlaps with any other peaks) in the spectrum of each compound was chosen for integration, relative to the DSS peak (at 0 ppm). […] In addition, the chemical shifts of the resonances in the 1D ^1H NMR spectra were monitored.

[11] = tested on: LPS-activated BV-2 cells; parameters: method as in Duffy et al. [2017]; details: 50 µM; ref Duffy et al. [2017]; cited from earlier work
[12] = read-out: KD (ITC titration of FABP4, Figure S1)

COc1cc(S(=O)(=O)Nc2cccc(C(=O)O)c2)ccc1Cl [MFP-0011462]
Kd [1, 12]: 694 nM | % reduction in intracellular ROS production (mean ± SEM) ([2]; 10 µM): 49 ± 0.04 (****p < 0.0001) % | % reduction in intracellular ROS production (mean ± SEM) ([2]; 50 µM): 46 ± 0.08 (***p < 0.001) % | fold reduction in cell viability [3]: 0.17–0.27 fold | BV-2 cell viability relative to vehicle control [3]: no significant differences | attenuation of LPS-mediated release of nitrite [4]: 12.2%

CNC(=O)c1ccc(S(=O)(=O)Nc2cccc(C(=O)O)c2)cc1 [MFP-0012318]
Kd ([1]; 25°C, pH 7.4, 2% DMSO, read-out: KD against FABP4): > 100000 nM | % reduction in intracellular ROS production (mean ± SEM) ([2]; 50 µM): 54 ± 0.09 (****p < 0.0001) % | fold reduction in cell viability [3]: 0.17–0.27 fold | BV-2 cell viability relative to vehicle control [3]: no significant differences

COc1ccc(S(=O)(=O)Nc2cccc(C(=O)O)c2)cc1Cl [MFP-0012314]
Kd [1, 12]: 885 nM | % reduction in intracellular ROS production (mean ± SEM) ([2]; 10 µM): 40 ± 0.09 (**p < 0.01) % | % reduction in intracellular ROS production (mean ± SEM) ([2]; 50 µM): 42 ± 0.07 (***p < 0.001) % | fold reduction in cell viability [3]: 0.17–0.27 fold | BV-2 cell viability relative to vehicle control [3]: no significant differences

CCc1c(-c2ccccc2)c(-c2ccccc2)nn1-c1ccccc1-c1cccc(OCC(=O)O)c1 [BMS309403, 2-((2'-(5-Ethyl-3,4-diphenyl-1H-pyrazol-1-yl)-[1,1'-biphenyl]-3-yl)oxy)acetic acid]
reduction in LPS-mediated TNF-α release [5]: 29.0% | LogP [6]: 7.2 | toxicity to BV-2 cells [7]: does not exhibit toxicity | reduction in ROS levels [8]: 36.0% | Ki [9]: < 2 nM | solubility [10]: ≥ 100 µM | reduction in nitrite production [11]: 26.8%
